Measurements: US20120329761A1, “USE OF TIGECYCLINE FOR TREATMENT OF CANCER” (UNIVERSITY HEALTH NETWORK, priority 2010, published 2012)

Assays:
TEX cells = experiment: ROS generation, DCF-DA and DHE staining; format: cell-based, human; conditions: time-points up to 24 hours
Description: FIG. 4. […] (A) Cells from TEX, OCI-AML2 and two primary AML patients were treated with increasing concentrations (2.5 μM and 5 μM) of tigecycline for 36 and 48 hours of tigecycline. Total proteins were extracted and analyzed by western blotting for Cox-1, Cox-2, Cox-4, grp78, XIAP, actin and tubulin. (B) TEX and AML patient cells were treated with increasing concentrations (2.5 μM and 5 μM) of tigecycline. Cox-1, Cox-2, and Cox-4 mRNA expression relative 18S was determined by quantitative RT-PCR. Data is shown as mean±SD. (C) TEX cells were treated with increasing concentrations of tigecycline and chloramphenicol (CAP) for 72 hours. Complex I, II and IV enzyme activity relative to citrate synthase activity was determined as described in materials and methods. (D) Cells from TEX, primary AML patients, and normal donors were treated with increasing concentrations of tigecycline. Mitochondrial membrane potential (Δψ) was determined by staining cells with JC-1 dye, and flow cytometry analysis (Red/Green ratio). Reactive oxygen species generation (ROS) was determined by staining with h2-DCFDA and Dihydroethidium (DHE).
A byproduct of the mitochondrial enzyme activities of the electron transport chain is the generation of reactive oxygen species (ROS). […] Therefore, the role of tigecycline on ROS generation in leukemia cells by analyzing hydrogen peroxide ions (H2O2) using a dichlorofluorescein dye (DCF-DA), and superoxide anions using dihydroethidium (DHE) was examined.

[1] = system: acute myeloid leukemia (AML); conditions: 13 patients treated; cited from earlier work

## CC[C@H]1/C=C/C=C/C[C@@H](C)[C@H](O)[C@@](C)(O)C(=O)[C@@H](C)[C@H](O)[C@@H](C)C(=O)[C@@H](C)[C@H](O)[C@@H](C)/C=C/C(=O)O[C@@H]2[C@H](C)[C@H](CC1)O[C@]1(CC[C@H](C)[C@H](C[C@@H](C)O)O1)[C@H]2C [oligomycin]
TEX cells
  ROS generation: rapid increases in ROS levels

## NC(=O)c1ncn([C@@H]2O[C@H](CO)[C@@H](O)[C@H]2O)n1 [ribavirin]
[1]
  complete remission (number of patients): 1
  partial remissions (number of patients): 2

## C=C(C)[C@H]1Cc2c(ccc3c2O[C@@H]2COc4cc(OC)c(OC)cc4[C@@H]2C3=O)O1 [rotenone]
TEX cells
  ROS generation: rapid increases in ROS levels

## antimycin
TEX cells
  ROS generation: rapid increases in ROS levels
